test system: Nrf2; experiment: Evaluation of Nrf2 activation ability (Nrf2d-LacZ / Keap1 HEK293 reporter, Beta-Glo luminescence); assay type: cell-based, human; conditions: Pharmacological Test Example 1, rated A/B/C
Procedure, shortened: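 HEK293 cells stably expressing a human Nrf2 degron–LacZ fusion plus human Keap1 were exposed to compound for 3 h at 37° C. Reporter β-galactosidase was read by Beta-Glo luminescence after 1 h at RT. Activation is given as % of the signal with 100 nM CDDO-Im.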

| EC50 [µM] | Compound |
| --- | --- |
| 1 to 5 | CC1(C)C(=O)N(c2cnn(-c3cc(O)n[s+]3[O-])c2)c2ccccc21 (centres unmarked) [Example 420] |
| 1 to 5 | CC(C)(C)OC(=O)N1CC=C(c2ccc(-c3cnn(-c4cc(O)n[s+]4[O-])c3)cn2)CC1 (single isomer, unassigned) [Example 449] |
| < 1 | [O-][s+]1nc(O)cc1-n1cc(-c2cc(C(F)(F)F)cc(C(F)(F)F)c2)cn1 (centres unmarked) [Example 368] |
| 1 to 5 | Cc1cc(OCCCS(C)(=O)=O)cc(C)c1-c1cccc(COc2ccc(-c3cnn(-c4cc(O)n[s+]4[O-])c3)cc2)c1 (centres unmarked) [Example 339] |
| 5 to 10 | CN(C)Cc1cccc(-c2cnn(-c3cc(O)n[s+]3[O-])c2)c1 (centres unmarked) [Example 406] |
| < 1 | N#Cc1ccc(Oc2ccc(-c3cnn(-c4cc(O)n[s+]4[O-])c3)cc2)cc1 (centres unmarked) [Example 362] |
| 1 to 5 | Cc1cccc(C)c1-c1cccc(COc2ccc(-c3cnn(-c4cc(O)n[s+]4[O-])c3)cc2)c1 (centres unmarked) [Example 338] |
| < 1 | [O-][s+]1nc(O)cc1-n1cc(-c2ccc3c(c2)CCCC3)cn1 (centres unmarked) [Example 342] |
| 1 to 5 | [O-][s+]1nc(O)cc1-n1cc(-c2ncccn2)cn1 (centres unmarked) [Example 423] |
| < 1 | [O-][s+]1nc(O)cc1-n1cc(C2=Cc3ccccc3C2)cn1 (centres unmarked) [Example 345] |
| 1 to 5 | [O-][s+]1nc(O)cc1-n1cc(-c2cccc3ccccc23)cn1 (centres unmarked) [Example 341] |
| 1 to 5 | COc1ccc(-c2cnn(-c3cc(O)n[s+]3[O-])c2)c(C)n1 (centres unmarked) [Example 402] |
| 1 to 5 | COc1nc(-c2ccc(C3CC3)nc2)ccc1-c1cnn(-c2cc(O)n[s+]2[O-])c1 (centres unmarked) [Example 437] |
| 1 to 5 | Cc1cncc(-c2cnn(-c3cc(O)n[s+]3[O-])c2)n1 (centres unmarked) [Example 416] |
| 1 to 5 | CN1CCOc2cc(-c3ccc(CCc4cnn(-c5cc(O)n[s+]5[O-])c4)cn3)cnc21 (centres unmarked) [Example 461] |
| 1 to 5 | N#CC1(c2ccc(-c3cnn(-c4cc(O)n[s+]4[O-])c3)cc2)CC1 (centres unmarked) [Example 369] |
| 1 to 5 | Cc1nn(-c2cc(O)n[s+]2[O-])c(C)c1C1=CCC(C)(C)CC1 (centres unmarked) [Example 316] |
| < 1 | [O-][s+]1nc(O)cc1-n1cc(-c2cccc(C(F)(F)F)c2)cn1 (centres unmarked) [Example 367] |
| < 1 | [O-][s+]1nc(O)cc1-n1cc(-c2cccc3cccnc23)cn1 (centres unmarked) [Example 344] |
| 5 to 10 | [O-][s+]1nc(O)cc1-n1cc(-n2cccn2)cn1 (centres unmarked) [Example 422] |
| 1 to 5 | [O-][s+]1nc(O)cc1-n1cc(-c2ccc(C(F)(F)F)nc2)cn1 (centres unmarked) [Example 396] |
| 1 to 5 | COc1cncc(-c2cnn(-c3cc(O)n[s+]3[O-])c2)c1 (centres unmarked) [Example 398] |

same assay, conditions: rated A/B/C, Pharmacological Test Example 1

| EC50 [µM] | Compound |
| --- | --- |
| 1 to 5 | [O-][s+]1nc(O)cc1-n1ncc2c1CN(Cc1cccc(Oc3ccccc3)c1)C2 (centres unmarked) [Example 264] |
| 1 to 5 | Cc1ccc2cnn(-c3cc(O)n[s+]3[O-])c2c1 (centres unmarked) [Example 32] |
| 5 to 10 | COc1ccc(CN2Cc3cnn(-c4cc(O)n[s+]4[O-])c3C2)cn1 (centres unmarked) [Example 266] |
| 1 to 5 | CC(C)(C)OC(=O)N1CC=C(c2cnn(-c3cc(O)n[s+]3[O-])c2)CC1 (centres unmarked) [Example 304] |
| < 1 | [O-][s+]1nc(O)cc1-n1ncc2cc(-c3ccc(Oc4ccccc4)cc3)ccc21 (centres unmarked) [Example 74] |
| 5 to 10 | CC(=O)NC1(c2ccc(-c3ccc4c(cnn4-c4cc(O)n[s+]4[O-])c3)cc2)CC1 (centres unmarked) [Example 65] |
| 5 to 10 | [O-][s+]1nc(O)cc1-n1ncc2c(-c3cncnc3)cccc21 (centres unmarked) [Example 81] |
| < 1 | CN1CCCOc2cc(-c3ccc4c(cnn4-c4cc(O)n[s+]4[O-])c3)cnc21 (centres unmarked) [Example 209] |
| 1 to 5 | COc1cc(-c2ccc3cnn(-c4cc(O)n[s+]4[O-])c3c2)ccn1 (centres unmarked) [Example 110] |
| 1 to 5 | COc1cc(-c2cccnc2)c2cnn(-c3cc(O)n[s+]3[O-])c2c1 (centres unmarked) [Example 166] |
| 1 to 5 | [O-][s+]1nc(O)cc1-n1ncc2cc(Br)ncc21 (centres unmarked) [Example 234] |
| < 1 | [O-][s+]1nc(O)cc1-n1ncc2cc(-c3cccnc3)ccc21 (centres unmarked) [Example 54] |
| 1 to 5 | [O-][s+]1nc(O)cc1-n1ncc2cc(-c3cnc(C4CC4)cn3)ccc21 (centres unmarked) [Example 122] |
| < 1 | [O-][s+]1nc(O)cc1-n1ncc2cc(-c3cnc4c(c3)OCCN4CC3CCC3)ccc21 (centres unmarked) [Example 162] |
| < 1 | COc1cc(-c2ccc(N3CCCC3)nc2)cc2c1cnn2-c1cc(O)n[s+]1[O-] (centres unmarked) [Example 193] |
| < 1 | CC(C)(C)OC(=O)N1CC=C(c2ccc3c(cnn3-c3cc(O)n[s+]3[O-])c2)CC1 (centres unmarked) [Example 44] |
| 1 to 5 | COc1cc(-c2ccnc(N3CCCC3)c2)c2cnn(-c3cc(O)n[s+]3[O-])c2c1 (centres unmarked) [Example 181] |
| 1 to 5 | [O-][s+]1nc(O)cc1-n1ncc2ccc(C(F)(F)F)cc21 (centres unmarked) [Example 33] |
| < 1 | CN1c2ncc(-c3ccc4c(cnn4-c4cc(O)n[s+]4[O-])c3)cc2OCC1(C)C (centres unmarked) [Example 213] |
| < 1 | COc1cccc(-c2ccc3c(cnn3-c3cc(O)n[s+]3[O-])c2)n1 (centres unmarked) [Example 129] |
| < 1 | COc1c(Br)ccc2c1cnn2-c1cc(O)n[s+]1[O-] (centres unmarked) [Example 207] |
| 5 to 10 | Cc1nn(-c2cc(O)n[s+]2[O-])c(C)c1C1=CCC(F)(F)CC1 (centres unmarked) [Example 312] |

Reference: patent US10201531B2, “Indazolyl-oxo-isothiazole compounds” (MOCHIDA PHARMACEUTICAL CO., LTD., priority 2015, dated 2019)
